Results from patent US20150299250A1, “MACROCYCLIC COMPOUNDS AND USES THEREOF” (ADELAIDE RESEARCH & INNOVATION PTY LTD, priority 2012, published 2015).
Where two headings read alike, the source gives them in different places. Where a SMILES comes first, the peptide text is derived from it. The star is where a group is joined. Cbz = O=C(OCc1ccccc1)*

Assays:
[1] = tested on: VH-64 Ewing's sarcoma cells; test: Cell viability assay (7AAD, 48 hours), VH-64; assay type: cell-based; details: 48 hours exposure; read-out: Cancer cell lines IC50 (μM) VH-64
Procedure: (§1) Cell viability assays were performed as previously described. Briefly, cells were seeded in 96 well microtiterplates at a density of 3×10^4 cells per well in the presence of the indicated chemical. Cells were harvested 48 hours post-treatment, centrifuged at 1,300×g, washed in phosphate-buffered saline (PBS) and stained with 7AAD solution (2 μg/mL) (7-amino-actinomycin-D, Invitrogen, Carlsbad, Calif.) for 10 mins at room temperature. Viable cells were determined with the use of a FACS Calibur flow cytometer (Becton Dickinson Immunocytometry Systems), and analyzed with the use of FLOWJO (Tree Star, Inc) and GraphPad Prism (GraphPad Software Inc).
(§2) WE-68 and VH-64 Ewing's sarcoma cells were kindly supplied by F. van Valen (Department of Orthopaedic Surgery, Westfalische-Wilhelms-University, Germany).TC-252 and STA-ET-1 Ewing's sarcoma cells were kindly provided by G. Hamilton (Department of Surgery, University of Vienna, Austria) or P. Ambros (Children's Cancer Research Institute, St Anna Children's Hospital, Vienna, Austria). Primary human embryonic fibroblasts or primary human osteoblasts were collected from the Women's and Children's Hospital (North Adelaide, South Australia, Australia) or Royal Adelaide Hospital with patient consent. Mouse Embryonic Fibroblasts (MEFs) and its p53-null derivative were kindly supplied by Guillermina Lozano (Department of Genetics, Anderson Cancer Centre, University of Texas, Houston, Tex., USA). WE-68 cell lines were grown in RPMI-1640 media, whilst human embryonic fibroblasts and MEFs were grown in Dulbecco's Modified Eagle's Medium (DMEM). Media was supplemented with 10% FCS, 1% PSG and 10 mM HEPES. All cells were maintained at 37° C. in a humidified atmosphere of 5% CO2.

[2] = tested on: primary human embryonic fibroblasts; test: Cell viability assay (7AAD, 48 hours), normal fibroblasts; assay type: cell-based; details: Fibroblast, 48 hours exposure, read-out: Normal cell lines IC50 (μM) Fibroblasts
Procedure: as §1, §2

[3] = tested on: STA-ET-1 Ewing's sarcoma cells; test: Cell viability assay (7AAD, 48 hours), STA-ET-1; assay type: cell-based; details: 48 hours exposure; read-out: Cancer cell lines IC50 (μM) STA-ET-1
Procedure: as §1, §2

[4] = tested on: WE-68 Ewing's sarcoma cells; test: Cell viability assay (7AAD, 48 hours), WE-68; assay type: cell-based; details: 48 hours exposure; read-out: Cancer cell lines IC50 (μM) WE-68
Procedure: as §1, §2

[5] = target: T1, 20S proteasome T-L activity (Oryctolagus cuniculus, UniProt G1SWK8); test: In vitro proteasome activity assay, T-L (Ac-RLR-AMC); assay type: biochemical, rabbit; details: purified 20S proteasome; highest concentration tested 25,000 nM
T1 construct: purchased Boston Biochem
T1 sequence (G1SWK8 1-271): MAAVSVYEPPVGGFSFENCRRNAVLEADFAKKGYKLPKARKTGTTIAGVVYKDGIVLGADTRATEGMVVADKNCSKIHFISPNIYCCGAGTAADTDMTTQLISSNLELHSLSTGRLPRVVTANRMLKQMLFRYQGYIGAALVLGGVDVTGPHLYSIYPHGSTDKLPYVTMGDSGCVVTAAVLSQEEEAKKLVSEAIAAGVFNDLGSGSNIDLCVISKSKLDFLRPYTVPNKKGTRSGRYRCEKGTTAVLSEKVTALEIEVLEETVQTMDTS
Procedure: (§3) The assays were performed in vitro using purified 20S proteasome/inhibitor mixtures, with the activity of each subunit of the proteasome assessed upon incubation with its respective target peptide.
(§4) Purified rabbit 20S proteasome and fluorogenic CT-L substrate (Suc-LLVY-AMC) were purchased from Boston Biochem (Cambridge, Mass., USA). The T-L and CP-L fluorogenic substrates (Ac-RLR-AMC and Z-nLPnLD-AMC) were purchased from Enzo Life Sciences (Farmingdale, N.Y., USA). The 20S proteasome was diluted to 0.2 μg/μL in 20S proteasome buffer (50 mM HEPES pH 7.6, 150 mM NaCl and 1 mM DDT) and stored at −80° C. Purified 20S proteasome (8 ng) was pre-incubated with the indicated concentrations of inhibitors for 15 minutes and subsequently added to the AMC-labeled substrate peptide (50 μM) in assay buffer (25 mM HEPES, pH 7.5, 0.5 mM EDTA, 0.05% NP-40, and 0.001% SDS (w/v)) at 37° C. for 2 hours.

[6] = tested on: primary human osteoblasts; test: Cell viability assay (7AAD, 48 hours), normal osteoblasts; assay type: cell-based; details: Osteoblast, 48 hours exposure, read-out: Normal cell lines IC50 (μM) Osteoblasts
Procedure: as §1, §2

[7] = tested on: normal cell lines (fibroblasts, osteoblasts); test: Cell viability assay, normal cell lines (average); assay type: cell-based; details: Homo sapiens; average of fibroblasts and osteoblasts
Procedure: as §1, §2

[8] = tested on: panel of sarcoma cell lines (WE-68, VH-64, STA-ET-1, TC-252); test: Cell viability assay, panel of four sarcoma cell lines (average); assay type: cell-based; details: for IC50: average of four sarcoma cell lines, read-out: Average IC50 for cancer cell lines; for Therapeutic window: fold change in potency (IC50) against cancer cell line versus normal cell line
Procedure: as §1, §2

[9] = target: T2, 20S proteasome chymotrypsin-like (CT-L) activity (Oryctolagus cuniculus, UniProt G1T4Q9); test: In vitro proteasome activity assay, CT-L (Suc-LLVY-AMC); assay type: biochemical, rabbit; details: for IC50: purified 20S proteasome
T2 sequence (G1T4Q9 1-263): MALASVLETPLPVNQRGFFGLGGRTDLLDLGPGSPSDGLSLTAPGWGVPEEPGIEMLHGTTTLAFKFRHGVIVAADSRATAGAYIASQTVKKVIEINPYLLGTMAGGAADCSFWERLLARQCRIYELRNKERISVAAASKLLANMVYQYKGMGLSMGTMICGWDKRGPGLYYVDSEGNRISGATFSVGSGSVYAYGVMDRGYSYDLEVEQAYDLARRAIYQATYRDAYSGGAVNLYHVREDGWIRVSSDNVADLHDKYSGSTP
Procedure: as §3, §4

[10] = tested on: MEF p53+/+ (mouse embryonic fibroblasts); test: Cell viability assay, MEF p53+/+; assay type: cell-based
From the text: Although proteasome inhibitors have been translated from the bench to the clinic over the past decade, their specific mechanisms of action remain poorly understood. As discussed earlier, proteasomal over-activity in tumor cells has been attributed to aberrant degradation of numerous critical cancer-related pro proteins, including the pro-apoptotic tumor suppressor, p53. However, the role of p53 as a downstream mediator of cell death in response to proteasomal inhibition remains unclear. Therefore, we used our small library of CT-L specific proteasome inhibitors (compounds 1-6) to determine the role of p53 in their mechanism of cytotoxic action. For this purpose, we utilized mouse embryonic fibroblasts (MEFs) from transgenic p53^+/+ and p53^−/− littermates. This isogenic pair of cell lines are either competent (MEF p53^+/+) or deficient (MEF p53^−/−) in p53 protein and are used here to assess a potential role for p53 as a downstream inducer of cell death in response to proteasomal inhibition.
as §1, §2

[11] = Mus musculus, Fibroblast; read-out: IC50 in MEF p53+/+

| SMILES | IC50 [1] | IC50 [2] | IC50 [3] | IC50 [4] | IC50 [5] | IC50 [6] | IC50 [7] | IC50 [8] | Therapeutic window [8] | IC50 [9] | IC50 [10, 11] | increase in potency against CT-L relative to compound 4 (Leu at P2) [9] | more potency against cancer cells over normal cells [8] | MEF p53+/+ more sensitive compared to MEF p53-/- [10] | IC50 ([10]; Mus musculus, Fibroblast, read-out: IC50 in MEF p53+/+) |
| --- | --- | --- | --- | --- | --- | --- | --- | --- | --- | --- | --- | --- | --- | --- | --- |
| C#CCOc1ccc(C[C@@H](C=O)NC(=O)[C@H](CC(C)C)NC(=O)[C@H](CCN=[N+]=[N-])NC(=O)OCc2ccccc2)cc1 [Compound 2] | 4.9 µM | 29.4 µM | 5.4 µM | 4.7 µM | > 25000 nM | 13.6 µM | 21500 nM | 4300 nM | ×5.0 | 355 nM | 2700 to 10300 nM |  |  |  |  |
| C#CCOc1ccc(C[C@@H](C=O)NC(=O)[C@H](CC(C)C)NC(=O)[C@H](CCCN=[N+]=[N-])NC(=O)OCc2ccccc2)cc1 [Compound 3] | 2.1 µM | 8.8 µM | 2.6 µM | 0.47 µM | > 25000 nM | 18.8 µM | 13800 nM | 1600 nM | ×8.7 | 54 nM | 2700 to 10300 nM |  |  |  |  |
| C#CCOc1ccc(C[C@@H](C=O)NC(=O)[C@H](CC(C)C)NC(=O)[C@H](CCCCN=[N+]=[N-])NC(=O)OCc2ccccc2)cc1 [Compound 4] | 1.9 µM | 39.5 µM | 2.6 µM | 10.8 µM | > 25000 nM | 10.4 µM | 25000 nM | 4200 nM | ×5.9 | 150 nM | 2700 to 10300 nM |  |  |  |  |
| C#CCOc1ccc(C[C@@H](C=O)NC(=O)[C@@H](NC(=O)[C@H](CCCCN=[N+]=[N-])NC(=O)OCc2ccccc2)[C@@H](C)CC)cc1 [Compound 5] | 1.1 µM | 19.9 µM | 1 µM | 0.98 µM | > 25000 nM | 4.8 µM | 12400 nM | 880 nM | ×14.1 | 21 nM | 2700 to 10300 nM | 7.5 fold |  |  |  |
| C#CCOc1ccc(C[C@@H](C=O)NC(=O)[C@H](CC(C)C)NC(=O)[C@H](Cc2ccc(N=[N+]=[N-])cc2)NC(=O)OCc2ccccc2)cc1 [Compound 6] | 1.9 µM | 45.4 µM | 2.4 µM | 1.1 µM | > 25000 nM | 11.6 µM | 28500 nM | 1500 nM | ×19.0 | 23 nM | 2700 to 10300 nM |  | 19 fold |  |  |
| CC(C)C[C@@H](C=O)NC(=O)[C@H](CC(C)C)NC(=O)[C@H](CC(C)C)NC(=O)OCc1ccccc1 [MG132, reference compound] (Cbz-Leu-Leu-Leu-aldehyde) | 0.68 µM | 2.8 µM | 0.59 µM | 0.68 µM | 2000 nM | 2.7 µM | 2800 nM | 610 nM | ×4.5 | 1.2 nM |  |  |  | over 2 fold | 410 nM |
